According to US6316033A, “Compositions for treatment of antibiotic-resistant gram-positive bacterial infections and methods for using and preparing the same” (Marco Polo Technologies, priority 1999, dated 2001):
Values after ≈ are worked out from the molar mass of the structure shown. Like-named read-outs stand apart in the source and are kept apart here.

Experiments:
[1] = test system: wild-type Staphylococcus aureus; experiment: Minimum inhibitory concentration in liquid culture, wild-type strain; type: cell-based
Procedure: (§1) Next, the MIC for the total organic solvent extract from A. euchroma, obtained as described in Example 1 above, against wild-type Staphylococcus aureus and antibiotic-resistant Staphylococcus aureus were determined in liquid culture using L-broth with different amounts of total organic solvent extract, and compared to the MIC for common antibiotics.
(§2) More specifically, different concentrations of total organic solvent extract was added to 1.0 ml of L-broth, and inoculated with 50 μl of an overnight growth of bacteria (about 1.0×10^8 cells). The resulting samples were incubated overnight at 37° C. The MIC was then determined by measuring the minimal concentration of extract needed to inhibit the growth of the bacteria.
The MIC of the six individual components were determined using wild-type S. aureus and the liquid culture method as described above.

[2] = literature (Tanaka et al; Kyogoku et al; Honda et al); cited from earlier work
[3] = literature (Tanaka et al, 1986); cited from earlier work
[4] = test system: antibiotic-resistant Staphylococcus aureus (ATCC 27695); experiment: Disk sensitivity assay, antibiotic-resistant S. aureus; type: cell-based; conditions: for zone of inhibition at 2000 µg/mL: Staphylococcus aureus, ATCC27695, 18 h
Procedure: (§3) More specifically, wild-type Staphylococcus aureus (ATCC 29212) was grown in Luria broth (L-broth) at 37° C. to exponential phase, diluted to 1.0×10^7 bacteria/ml, and mixed with minimal medium (M63, +salt and glucose) with 0.15% (w/v) soft agar. The mixture was poured over a minimal agar plate (minimal medium +0.7% (w/v) agar). Filter paper disks (6.0 mm in diameter) were then impregnated with 20 μl of total organic solvent extract from A. euchroma (containing 10 mg/ml of naphthaquinone compounds in dimethyl formamide (DMF)); 20 μl of total organic solvent extract from L. erythrorhizon (containing 10 mg/ml of naphthaquinone compounds in DMF); 20 μl of the red colored active fraction from A. euchroma isolated using TLC (10 mg/ml in DMF); 20 μl of the red colored active fraction from A. euchroma isolated using the silica gel column (10 mg/ml in DMF); or 20 μl of DMF as control, and placed on the surface of the agar plates. The plates were then incubated at 37° C. for 18 hrs.
The disk assay described above was carried out using antibiotic-resistant Staphylococcus aureus (ATCC 27695), and 20 μl of the total organic solvent extract from A. euchroma (containing 10 mg/ml of naphthaquinone compounds in DMF); 20 μl of the total organic solvent extract from L. erythrorhizon (containing 10 mg/ml of naphthaquinone compounds in DMF); or 20 μl of DMF as a control.
(§4) The disk assay described above was carried out on wild-type S. aureus and antibiotic-resistant S. aureus using 20 μl of the red colored active fraction from A. euchroma isolated using TLC (10 mg/ml in DMF); 20 μl of the red colored active fraction from A. euchroma isolated using the silica gel column (10 mg/ml in DMF); or 20 μl of DMF as a control.
(§5) The anti-microbial activities of the 6 individual components were determined using the disk sensitivity assay described above.
(§6) More specifically, filter paper disks impregnated with 20 μl of each individual component (2.0 mg/ml) were placed on top of the agar plate. The plates were developed as described in Example 4 above.

[5] = test system: wild-type Staphylococcus aureus (ATCC 29212); experiment: Disk sensitivity assay, wild-type S. aureus; type: cell-based; conditions: for zone of inhibition at 2000 µg/mL: Staphylococcus aureus, ATCC29212, 18 h
Procedure: The antimicrobial activities of the total organic solvent extract from A. euchroma, obtained as described in Example 1 above, and the red colored active fraction from A. euchroma, obtained as described in Example 2 above, were evaluated using a disk sensitivity assay.
as §3, §4, §5, §6

[6] = test system: antibiotic-resistant Staphylococcus aureus clinical isolates; experiment: Antibiotic resistance (MIC) of S. aureus clinical isolates; type: cell-based
[7] = test system: antibiotic-resistant Staphylococcus aureus; experiment: Minimum inhibitory concentration in liquid culture, antibiotic-resistant strain; type: cell-based; conditions: read-out: Minimum Inhibitory Concentration (MIC)
Procedure: as §1, §2

[8] = wild-type S. aureus, liquid culture, Table 10
[9] = Antibiotic-resistant Strain, individual components, 20 μl of 2.0 mg/ml, Table 9
[10] = Wild-Type Strain, individual components, 20 μl of 2.0 mg/ml, Table 9
[11] = Staphylococcus aureus, read-out: Minimum Inhibitory Concentration (MIC)
[12] = read-out: Antibiotic Resistance (MIC), Strain 3-44
[13] = Strain 3-16, read-out: Antibiotic Resistance (MIC)
[14] = Strain 3-20, read-out: Antibiotic Resistance (MIC)
[15] = Strain 5-37, read-out: Antibiotic Resistance (MIC)
[16] = Strain 5-38, read-out: Antibiotic Resistance (MIC)
[17] = Strain 5-39, read-out: Antibiotic Resistance (MIC)
[18] = Strain 5-47, read-out: Antibiotic Resistance (MIC)
[19] = Staphylococcus aureus, wild-type S. aureus, liquid culture, Table 10, read-out: MIC
[20] = Antibiotic-resistant Strain, individual components, 20 μl of 2.0 mg/ml, Table 9, read-out: Zone of inhibition
[21] = Wild-Type Strain, individual components, 20 μl of 2.0 mg/ml, Table 9, read-out: Zone of inhibition

CC(C)=CC[C@@H](O)C1=CC(=O)c2c(O)ccc(O)c2C1=O (single isomer, unassigned) [Peak I, Shikonin]
MIC ([1]; Staphylococcus aureus): 4 to 5 µg/mL (≈ 13.9 to 17.3 µM) | antimicrobial activity [2]: antimicrobial activity | anti-inflammatory activity [3]: anti-inflammatory activity | zone of inhibition at 2000 µg/mL [4]: 18 mm | appearance of zone of inhibition ([4]; antibiotic-resistant S. aureus, individual components, 2.0 mg/ml): the inhibition was not complete, as shown by an opaque, rather than a clear zone | zone of inhibition at 2000 µg/mL [5]: 18 mm | appearance of zone of inhibition ([5]; wild-type S. aureus, individual components, 2.0 mg/ml): the inhibition was not complete, as shown by an opaque, rather than a clear zone

CC(=O)O[C@H](CC=C(C)C)C1=CC(=O)c2c(O)ccc(O)c2C1=O (single isomer, unassigned) [Peak II, Acetyl shikonin]
MIC ([1]; Staphylococcus aureus): 0.5 to 1 µg/mL (≈ 1.51 to 3.03 µM) | activity ranking among the individual components (MIC) [1, 8]: the most active | zone of inhibition at 2000 µg/mL [4]: 17 mm | zone of inhibition at 2000 µg/mL [5]: 10 mm

CC(C)=CC[C@@H](OC(=O)CC(C)=C(C)C)C1=CC(=O)c2c(O)ccc(O)c2C1=O (single isomer, unassigned; peak iii) [Peak III, Teracryl shikonin]
MIC [1, 8]: 4.0 to 6.0 µg/mL | Zone of inhibition [4, 9]: 7.0 mm | Zone of inhibition [5, 10]: 7.5 mm

CC(C)=CC[C@@H](OC(=O)CC(C)(C)O)C1=CC(=O)c2c(O)ccc(O)c2C1=O (single isomer, unassigned; peak iv) [Peak IV, Hydroxyisovaleryl shikonin]
MIC [1, 8]: 4.0 to 6.0 µg/mL | Zone of inhibition [4, 9]: 7.0 mm | Zone of inhibition [5, 10]: 7.0 mm

CC[C@H]1OC(=O)[C@H](C)[C@@H](O[C@H]2C[C@@](C)(OC)[C@@H](O)[C@H](C)O2)[C@H](C)[C@@H](O[C@@H]2O[C@H](C)C[C@H](N(C)C)[C@H]2O)[C@](C)(O)C[C@@H](C)C(=O)[C@H](C)[C@@H](O)[C@]1(C)O [Erythromycin]
MIC [1, 11]: < 1 µg/mL | MIC [6, 12]: > 32 µg/mL | MIC ([6]; read-out: Antibiotic Resistance (MIC), Strain 5-75): > 32 µg/mL | MIC ([6]; read-out: Antibiotic Resistance (MIC), Strain 5-76): > 32 µg/mL | MIC ([6]; read-out: Antibiotic Resistance (MIC), Strain 5-77): > 32 µg/mL | MIC ([6]; read-out: Antibiotic Resistance (MIC), Strain 5-78): 4 µg/mL (≈ 5.45 µM) | MIC [7]: > 20 µg/mL

COc1cccc(OC)c1C(=O)N[C@@H]1C(=O)N2[C@@H]1SC(C)(C)[C@@H]2C(=O)O [Methicillin]
MIC [6, 13]: 32 µg/mL (≈ 84.1 µM) | MIC [6, 14]: 128 µg/mL (≈ 336 µM) | MIC [6, 15]: > 128 µg/mL | MIC [6, 16]: 32 µg/mL (≈ 84.1 µM) | MIC [6, 17]: 128 µg/mL (≈ 336 µM) | MIC [6, 18]: > 128 µg/mL

CO[C@@H]1[C@@H](OC(N)=O)[C@@H](O)[C@H](Oc2ccc3c(O)c(NC(=O)c4ccc(O)c(CC=C(C)C)c4)c(=O)oc3c2C)OC1(C)C [Novobiocin]
MIC [1, 11]: < 2 µg/mL | MIC [7]: > 20 µg/mL

CC(C)=CC[C@@H](OC(=O)C(C)C)C1=CC(=O)c2c(O)ccc(O)c2C1=O [Peak V, Isobutyl shikonin]
MIC [1, 19]: 2 to 4 µg/mL (≈ 5.58 to 11.2 µM) | zone of inhibition at 2000 µg/mL [4, 20]: 7 mm | zone of inhibition at 2000 µg/mL [5, 21]: 7 mm

CC(C)=CCC(OC(=O)C=C(C)C)C1=CC(=O)c2c(O)ccc(O)c2C1=O (stereo not drawn) [Peak VI, β, β-dimethylacryl shikonin]
MIC [1, 19]: < 2 µg/mL | activity ranking among the individual components (MIC) [1, 8]: the most active | zone of inhibition at 2000 µg/mL [4, 20]: 7 mm | zone of inhibition at 2000 µg/mL [5, 21]: 7 mm

CC1(C)S[C@@H]2[C@H](NC(=O)Cc3ccccc3)C(=O)N2[C@H]1C(=O)O [Penicillin G]
MIC ([6]; read-out: Antibiotic Resistance (MIC), Strain 6515): > 20 µg/mL

CCN1CCN(C(=O)N[C@@H](C(=O)N[C@@H]2C(=O)N3[C@@H]2SC(C)(C)[C@@H]3C(=O)O)c2ccccc2)C(=O)C1=O [Piperacillin]
MIC [6, 13]: 32 µg/mL (≈ 61.8 µM) | MIC [6, 14]: 128 µg/mL (≈ 247 µM) | MIC ([6]; Strain 4-15, read-out: Antibiotic Resistance (MIC)): 32 µg/mL (≈ 61.8 µM) | MIC ([6]; Strain 4-44, read-out: Antibiotic Resistance (MIC)): > 128 µg/mL | MIC ([6]; Strain 4-50, read-out: Antibiotic Resistance (MIC)): 32 µg/mL (≈ 61.8 µM) | MIC [6, 15]: > 128 µg/mL | MIC [6, 16]: 32 µg/mL (≈ 61.8 µM) | MIC [6, 17]: 128 µg/mL (≈ 247 µM) | MIC [6, 18]: > 128 µg/mL

CN(C)C1C(=O)C(C(N)=O)=C(O)C2(O)C(=O)C3=C(O)c4c(O)cccc4C(C)(O)C3CC12 (stereo not shown) [Tetracycline]
MIC [1, 11]: 1 to 2 µg/mL (≈ 2.25 to 4.5 µM) | MIC [6, 12]: > 32 µg/mL | MIC ([6]; read-out: Antibiotic Resistance (MIC), Strain 1206): > 32 µg/mL | MIC [7]: > 20 µg/mL

CC(C)=CCCC1=CC(=O)c2c(O)ccc(O)c2C1=O [deoxyshikonin]
antimicrobial activity [2]: antimicrobial activity | anti-inflammatory activity [3]: anti-inflammatory activity
